According to ChEMBL document CHEMBL3217625, “Syntheses of a new class of phenyl butyraldehyde-derived amines with in vitro trypanocide activities” (Medchemcomm, 2012):
Active and inactive are the calls of the source. The rule behind the calls is not given here.

Legend:
[1] = test system: HeLa; experiment: Cytotoxicity against human HeLa cells assessed as inhibition of cell proliferation at 5 to 10 ug/ml after 48 hrs by MTT assay; format: cell-based
[2] = test system: Trypanosoma cruzi; experiment: Antiparasitic activity against Trypanosoma cruzi strain CL Brener epimastigotes assessed as growth inhibition after 72 hrs by neubauer chamber analysis; format: functional, organism-based
[3] = target: Trypanothione reductase (Trypanosoma cruzi) (UniProt P28593); experiment: Time-dependent inhibition of Trypanosoma cruzi trypanothione reductase using TS2 as substrate by DTNB-coupled assay
Sequence of Trypanothione reductase (Trypanosoma cruzi) (P28593 whole entry, looked up): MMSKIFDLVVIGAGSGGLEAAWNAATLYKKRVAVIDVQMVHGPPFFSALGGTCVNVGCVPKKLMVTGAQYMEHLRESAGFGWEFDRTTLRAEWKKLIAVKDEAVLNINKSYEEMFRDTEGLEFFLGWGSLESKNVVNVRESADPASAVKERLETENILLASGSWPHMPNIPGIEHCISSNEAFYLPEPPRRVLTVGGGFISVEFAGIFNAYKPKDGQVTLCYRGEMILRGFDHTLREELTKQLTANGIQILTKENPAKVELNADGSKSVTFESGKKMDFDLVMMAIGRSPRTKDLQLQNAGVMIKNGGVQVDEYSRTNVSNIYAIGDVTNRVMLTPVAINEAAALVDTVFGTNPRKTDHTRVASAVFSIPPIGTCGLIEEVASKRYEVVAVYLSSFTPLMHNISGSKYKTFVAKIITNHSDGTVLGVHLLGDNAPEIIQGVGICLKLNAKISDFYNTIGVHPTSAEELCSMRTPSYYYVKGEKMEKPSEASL

[4] = test system: HeLa; experiment: Cytotoxicity against human HeLa cells assessed as inhibition of cell proliferation at 5 ug/ml after 48 hrs by MTT assay; format: cell-based
[5] = target: T1, Trypanothione reductase (Trypanosoma cruzi, UniProt P28593); experiment: Time-dependent inhibition of Trypanosoma cruzi trypanothione reductase assessed as stabilization of enzyme-inhibitor complexes using TS2 as substrate by DTNB-coupled assay; conditions: read-out: Ki(app)
T1 sequence (P28593 whole entry): as the sequence (P28593 whole entry, looked up) above

[6] = target: T1, Trypanothione reductase; experiment: Time-dependent inhibition of Trypanosoma cruzi trypanothione reductase assessed as dissociation constants for enzyme-inhibitor binding using TS2 as substrate by DTNB-coupled assay; conditions: read-out: Ki(app)
[7] = test system: Trypanosoma cruzi; experiment: Antiparasitic activity against Trypanosoma cruzi strain CL Brener epimastigotes assessed as growth inhibition at 4 ug/ml after 72 hrs by neubauer chamber analysis; format: functional; conditions: read-out: GI
[8] = test system: Trypanosoma cruzi; experiment: Antiparasitic activity against Trypanosoma cruzi strain CL Brener epimastigotes assessed as growth inhibition at 4 ug/ml after 72 hrs by neubauer chamber analysis in presence of 20 uM H2O2 (Rvb= 3%); format: functional
[9] = test system: Trypanosoma cruzi; experiment: Antiparasitic activity against Trypanosoma cruzi strain CL Brener epimastigotes assessed as growth inhibition at 4 ug/ml after 72 hrs by neubauer chamber analysis in presence of 5 uM H2O2 (reference value: 4%); format: functional
[10] = test system: Trypanosoma cruzi; experiment: Antiparasitic activity against Trypanosoma cruzi strain CL Brener epimastigotes assessed as growth inhibition at 6 ug/ml after 72 hrs by neubauer chamber analysis; format: functional; conditions: read-out: GI
[11] = target: Trypanothione reductase (Trypanosoma cruzi) (UniProt P28593); experiment: Reversible competitive slow-binding inhibition of Trypanosoma cruzi trypanothione reductase using TS2 as substrate by DTNB-coupled assay; conditions: TDE = time-dependent effect
[12] = test system: Trypanosoma cruzi; experiment: Antiparasitic activity against Trypanosoma cruzi strain CL Brener epimastigotes assessed as growth inhibition at 4 ug/ml after 72 hrs by neubauer chamber analysis in presence of 10 uM H2O2 (Rvb= 0%); format: functional
[13] = test system: Trypanosoma cruzi; experiment: Antiparasitic activity against Trypanosoma cruzi strain CL Brener epimastigotes assessed as growth inhibition at 6 ug/ml after 72 hrs by neubauer chamber analysis in presence of 20 uM H2O2 (Rvb= 8%); format: functional
[14] = test system: Trypanosoma cruzi; experiment: Antiparasitic activity against Trypanosoma cruzi strain CL Brener epimastigotes assessed as growth inhibition at 6 ug/ml after 72 hrs by neubauer chamber analysis in presence of 5 uM H2O2 (reference value: 0%); format: functional
[15] = test system: Trypanosoma cruzi; experiment: Antiparasitic activity against Trypanosoma cruzi strain CL Brener epimastigotes assessed as growth inhibition at 6 ug/ml after 72 hrs by neubauer chamber analysis in presence of 10 uM H2O2 (Rvb= 7%); format: functional

## Cc1cc(C)c(CCCCNCc2ccccc2)c(C)c1O
[1]
  Activity: Toxic
[2]
  IC50: 10.1 µM
[3]
  inhibition: inactive

## CCCNCCCc1ccccc1
[2]
  IC50: 241 µM

## C=CCc1cc(C)c(O)c(C)c1CCCCN(CCCCc1c(CC=C)cc(C)c(O)c1C)Cc1ccccc1
[4]
  Activity: Non-toxic
[2]
  IC50: 19.8 µM

## O=C1CC[C@]23/C=C/C(=O)NCCCCNCCCNC(=O)/C=C\c4ccc(c2c4)O[C@@H]3C1
[5]
  Ki: 114 µM
[6]
  Ki: 304 µM

## Nc1nc(N)nc(Nc2ccc([As]=O)cc2)n1 (stereo not drawn) [MELARSEN OXIDE]
[5]
  Ki: 1.4 µM
[6]
  Ki: 18 µM

## Cc1cc(C)c(CCCC=O)c(C)c1O
[2]
  IC50: 485 µM

## c1ccc(CCCN(CCCc2ccccc2)Cc2ccccc2)cc1
[2]
  IC50: 34.6 µM

## CCCNCCCCc1c(C)cc(C)c(O)c1C
[2]
  IC50: 55.8 µM

## CCCN(CCCc1ccccc1)CCCc1ccccc1
[4]
  Activity: Non-toxic
[2]
  IC50: 18.6 µM

## CCCN(CCCCc1c(C)cc(C)c(O)c1C)CCCCc1c(C)cc(C)c(O)c1C
[2]
  IC50: 52.3 µM

## Cc1cc(C)c(CCCCN(CCCCc2c(C)cc(C)c(O)c2C)Cc2ccccc2)c(C)c1O
[5]
  Ki: 37 µM
[7]
  inhibition of growth at 4 µg/mL: 50%
[8]
  growth inhibition (GI): 50%
[9]
  growth inhibition (GI): 48%
[10]
  inhibition of growth at 6 µg/mL: 49%
[11]
  inhibition: tde
[4]
  Activity: Non-toxic
[12]
  growth inhibition (GI): 52%
[2]
  IC50: 8 µM
[13]
  growth inhibition (GI): 53%
[14]
  growth inhibition (GI): 58%
[6]
  Ki: 288 µM
[15]
  growth inhibition (GI): 58%

## C=CCc1cc(C)c(O)c(C)c1CCCCNCc1ccccc1
[2]
  IC50: 183 µM

## O=C(Cn1ccnc1[N+](=O)[O-])NCc1ccccc1 [BENZNIDAZOLE]
[4]
  Activity: Non-toxic
[2]
  IC50: 10 µM

## c1ccc(CCCNCc2ccccc2)cc1
[2]
  IC50: 104 µM
